Results published in patent publication US20240349768A1, “SWEETENER BLEND COMPRISING THAUMATIN AND ONE OR MORE REBAUDIOSIDE” (NOMAD BIOSCIENCE GMBH, priority 2021, published 2024).

Assays:
test panelists [1] = experiment: Round table evaluation of sweetness intensity (SEV) against sucrose reference samples; format: in vivo; settings: 7 panelists, mean
Protocol: Round table evaluations were performed with 7 test panelists. Equal sweet 5 SEV concentrations in neutral pH water were made for Thaumatin II (purity greater than 90%), Rebaudioside A, and Rebaudioside M. These equal sweet solutions were also mixed at 50% of Thaumatin II and 50% Reb M or RebA and compared to the individual components. The components of the test compositions are described in the below tables. The mixed compositions were calculated using the Beidler mixture equation for the sweeteners. The Beidler mixture equation for sweeteners is as follows: [formula] The concentration of each component in the mixture in ppm is divided by SEV (c/R) and is plotted against concentration, c. The slope of the linear regression is the maximum SEV (Rmax). The y-intercept of the linear regression multiplied by Rmax is the half-maximal sweetness concentration, 1/K. Rmax and 1/K are the two parameters used in the Beidler equation. Mixtures were tasted in comparison to reference samples for the panelists to determine SEV values. References samples were 3%, 4%, 5%, 6%, 7%, and 8% sucrose in neutral pH water. The test samples were served in 2 ounce soufflé cups (approximately 60 ml) coded with 3-digit codes at room temperature. A two minute wait period between samples was enforced. Water and unsalted crackers was available for the panelists to clear their palates before and during testing. Results were collected for calculating approximate SEV level of each test sample.

test panelists [2] = experiment: Round table qualitative assessment of quality of sweetness and undesirable attributes, scale of 1-10; format: in vivo; settings: for Quality of sweetness (higher better): scale 1-10, 10 = 5% sucrose, 1 = 500 ppm RebA; for Off taste (lower better): scale 1-10, 10 = 500 ppm RebA, 1 = 5% sucrose
Protocol: Round table evaluations were performed with 7 test panelists. Equal sweet 5 SEV concentrations in neutral pH water were made for Thaumatin II (purity greater than 90%), Rebaudioside A, and Rebaudioside M. These equal sweet solutions were also mixed at 50% of Thaumatin II and 50% Reb M or RebA and compared to the individual components. All solutions were coded and blinded from panelists. Panelists were asked to provide a qualitative assessment on a scale of 1-10 of the quality of sweetness (10 being the highest quality of sweetness) and undesirable attributes (10 being most undesirable) of each solution using a 5% sucrose and 500 ppm RebA solutions as controls. For the quality of sweetness, the score 10 was assigned to 5% sucrose. Vice versa, the score 1 was assigned to and 500 ppm RebA. For undesirable attributes, the scores 10 and 1 were assigned to 500 ppm RebA and 5% sucrose, respectively.

C=C1C[C@@]23CC[C@H]4[C@@](C)(CCC[C@@]4(C)C(=O)O[C@@H]4O[C@H](CO)[C@@H](O)[C@H](O)[C@H]4O)[C@@H]2CC[C@]1(O[C@@H]1O[C@H](CO)[C@@H](O)[C@H](O[C@@H]2O[C@H](CO)[C@@H](O)[C@H](O)[C@H]2O)[C@H]1O[C@@H]1O[C@H](CO)[C@@H](O)[C@H](O)[C@H]1O)C3 [Rebaudioside A]
Sweetness intensity determined, SEV (test panelists [1]; 260 ppm in neutral pH water): 4.8 SEV | Quality of sweetness (higher better) (test panelists [2]; 260 ppm in neutral pH water): 5.6 | Off taste (lower better) (test panelists [2]; 260 ppm in neutral pH water): 6.7

C=C1C[C@@]23CC[C@H]4[C@@](C)(CCC[C@@]4(C)C(=O)O[C@@H]4O[C@H](CO)[C@@H](O)[C@H](O[C@@H]5O[C@H](CO)[C@@H](O)[C@H](O)[C@H]5O)[C@H]4O[C@@H]4O[C@H](CO)[C@@H](O)[C@H](O)[C@H]4O)[C@@H]2CC[C@]1(O[C@@H]1O[C@H](CO)[C@@H](O)[C@H](O[C@@H]2O[C@H](CO)[C@@H](O)[C@H](O)[C@H]2O)[C@H]1O[C@@H]1O[C@H](CO)[C@@H](O)[C@H](O)[C@H]1O)C3 [Rebaudioside M]
Sweetness intensity determined, SEV (test panelists [1]; 155 ppm in neutral pH water): 5.3 SEV | Quality of sweetness (higher better) (test panelists [2]; 155 ppm in neutral pH water): 8.8 | Off taste (lower better) (test panelists [2]; 155 ppm in neutral pH water): 2.5 | Quality of sweetness and off taste, in words (test panelists [2]; equal sweet 5 SEV solutions and their 50%/50% mixtures in neutral pH water): very mild artificial off taste

B1: Thaumatin II: oligopeptide or protein of SEQ ID NO: 2; recombinant, purity greater than 90%, purified from transgenic Nicotiana tabacum plants (protein, listed as Thaumatococcus daniellii)
chain: ATFEIVNRCSYTVWAAASKGDAALDAGGRQLNSGESWTINVEPGTKGGKIWARTDCYFDDSGRGICRTGDCGGLLQCKRFGRPPTTLAEFSLNQYGKDYIDISNIKGFNVPMDFSPTTRGCRGVRCAADIVGQCPAKLKAPGGGCNDACTVFQTSEYCCTTGKCGPTEYSRFFKRLCPDAFSYVLDKPTTVTCPGSSNYRVTFCPTA
Sweetness intensity determined, SEV (test panelists [1]; 7 ppm in neutral pH water): 4.6 SEV | Quality of sweetness (higher better) (test panelists [2]; 7 ppm in neutral pH water): 6.5 | Off taste (lower better) (test panelists [2]; 7 ppm in neutral pH water): 4.7
